Source: ChEMBL document CHEMBL5365441, “Novel Foscan®-derived ring-fused chlorins for photodynamic therapy of cancer” (Bioorg Med Chem, 2023)
pIC50: −log10 of the molar value.

Legend:
[1] = Induction of singlet oxygen production in EtOH assessed as singlet oxygen quantum yield by SOSG reagent based assay; format: functional
[2] = system: MDA-MB-231; assay: Phototherapeutic index, ratio of IC50 for cytotoxicity against human MDA-MB-231 cells under dark condition to IC50 for photocytotoxicity against human MDA-MB-231 cells in presence of 1 J/cm2 light irradiation; format: functional
[3] = Photostability of compound in DMSO assessed as photodecomposition quantum yield; format: physicochemical
[4] = Cytotoxicity against mouse NIH/3T3 cells assessed as reduction in cell viability incubated for 24 hrs under dark condition by resazurin reduction assay; format: toxicity, cell-based, NIH3T3
[5] = Drug internalization in mouse NIH/3T3 cells at 2.5 uM by flow cytometry analysis; format: ADME, cell-based; conditions: nih3t3, 2.5 µM, TDE = time-dependent effect, time 3-24 hrs
[6] = Drug internalization in human MDA-MB-231 cells at 2.5 uM by flow cytometry analysis; format: ADME, cell-based; conditions: mda-mb-231, 2.5 µM, TDE = time-dependent effect, time 3-24 hrs
[7] = Photocytotoxicity against mouse NIH/3T3 cells assessed as reduction in cell viability preincubated for 24 hrs followed by washout and 1 J/cm2 light irradiation for 24 hrs by resazurin reduction assay; format: toxicity, cell-based, NIH3T3
[8] = system: MDA-MB-231; assay: Photocytotoxicity against human MDA-MB-231 cells assessed as reduction in cell viability preincubated for 24 hrs followed by washout and 1 J/cm2 light irradiation for 24 hrs by resazurin reduction assay; format: functional, cell-based; conditions: MDA-MB-231, light or radiation study
[9] = Emission property of compound in DMSO assessed as fluorescence quantum yield; format: physicochemical
[10] = system: MDA-MB-231; assay: Cytotoxicity against human MDA-MB-231 cells assessed as reduction in cell viability incubated for 24 hrs under dark condition by resazurin reduction assay; format: functional, cell-based; conditions: MDA-MB-231, 24 h
[11] = Drug distribution in golgi body of human U2OS cells expressing GALT1-GFP assessed as increase in fluorescence intensity at 5 uM incubated for 24 hrs by Hoechst staining based confocal microscopic analysis; format: ADME, subcellular
[12] = Drug distribution in endoplasmic reticulum of human U2OS cells expressing CALR-GFP assessed as increase in fluorescence intensity at 5 uM incubated for 24 hrs by Hoechst staining based confocal microscopic analysis; format: ADME, subcellular

SMILES	Activity [1]	Ratio IC50 [2]	Activity [3]	IC50 at 24 h [4] [nM]	Drug uptake [5]	Drug uptake [6]	pIC50 [7]	pIC50 [8]	Activity [9]	pIC50 [10]	Drug uptake [11]	Drug uptake [12]
OCc1nn2c(c1CO)CC1c3nc(c(-c4cccc(O)c4)c4ccc([nH]4)c(-c4cccc(O)c4)c4nc(c(-c5cccc(O)c5)c5ccc([nH]5)c3-c3cccc(O)c3)C=C4)C1C2 (centres undefined)	0.49	37	54.8 10^-6No_unit	> 10000	Tde	Tde	6.47	6.51	0.1	4.94		
COC(=O)c1cc2n(n1)CC1c3nc(c(-c4cccc(OC(C)=O)c4)c4ccc([nH]4)c(-c4cccc(OC(C)=O)c4)c4nc(c(-c5cccc(OC(C)=O)c5)c5ccc([nH]5)c3-c3cccc(OC(C)=O)c3)C=C4)C1C2 (centres undefined)	0.45		66.9 10^-6No_unit	> 10000	Tde	Tde	6.21	8.89	0.11	< 5.00	Not Active	Not Active
OCc1cc2n(n1)CC1c3nc(c(-c4cccc(O)c4)c4ccc([nH]4)c(-c4cccc(O)c4)c4nc(c(-c5cccc(O)c5)c5ccc([nH]5)c3-c3cccc(O)c3)C=C4)C1C2 (centres undefined)	0.5	93.37	52.7 10^-6No_unit	> 10000	Tde	Tde	6.97	7.06	0.1	5.11	Active	Active
[N-]=[N+]=NCc1cc2n(n1)CC1c3nc(c(-c4cccc(O)c4)c4ccc([nH]4)c(-c4cccc(O)c4)c4nc(c(-c5cccc(O)c5)c5ccc([nH]5)c3-c3cccc(O)c3)C=C4)C1C2 (centres undefined)	0.47	149.7	60.8 10^-6No_unit	10600	Tde	Tde	7.03	6.98	0.12	4.80		
COC(=O)c1cc2n(n1)CC1c3nc(c(-c4cccc(O)c4)c4ccc([nH]4)c(-c4cccc(O)c4)c4nc(c(-c5cccc(O)c5)c5ccc([nH]5)c3-c3cccc(O)c3)C=C4)C1C2 (centres undefined)	0.53	56.27	60.8 10^-6No_unit	> 10000	Tde	Tde	6.96	6.86	0.11	5.11		
Oc1cccc(-c2c3nc(c(-c4cccc(O)c4)c4ccc([nH]4)c(-c4cccc(O)c4)c4nc(c(-c5cccc(O)c5)c5ccc2[nH]5)C=C4)C=C3)c1				9160	Tde	Tde	7.90	7.59		5.48		
